Read-outs that look alike come from different tables or passages of the source. Blank lines part the entries; values can stand above or below the compound they belong to.
Tests used:
GLUT5 [1] = biological target: T1, GLUT5 (Mus musculus, UniProt Q9WV38); experiment: In vitro inhibition of 6-[18F]FDF cell uptake (competition) in EMT6 cells; type: cell-based, murine; conditions: for IC50: 60 min incubation, glucose-free Krebs-Ringer buffer, mean ± SEM from n data points out of 2-4 experiments, read-out: IC50 (mM) against 6-[18F]FDF uptake into EMT6 cells; for Fold better inhibition of 6-[18F]FDF uptake relative to 6-FDF: compared with reference 6-FDF; for Inhibition of 6-[18F]FDF uptake into EMT6 cells (in words): selected concentration range 10^-8-10^-3 and 3 x 10^-2 M
T1 construct: GLUT5-expressing murine mammary carcinoma cancer cells (EMT6); endogenous in cells; host or cells: EMT6 murine mammary carcinoma cells
T1 sequence (Q9WV38 1-501): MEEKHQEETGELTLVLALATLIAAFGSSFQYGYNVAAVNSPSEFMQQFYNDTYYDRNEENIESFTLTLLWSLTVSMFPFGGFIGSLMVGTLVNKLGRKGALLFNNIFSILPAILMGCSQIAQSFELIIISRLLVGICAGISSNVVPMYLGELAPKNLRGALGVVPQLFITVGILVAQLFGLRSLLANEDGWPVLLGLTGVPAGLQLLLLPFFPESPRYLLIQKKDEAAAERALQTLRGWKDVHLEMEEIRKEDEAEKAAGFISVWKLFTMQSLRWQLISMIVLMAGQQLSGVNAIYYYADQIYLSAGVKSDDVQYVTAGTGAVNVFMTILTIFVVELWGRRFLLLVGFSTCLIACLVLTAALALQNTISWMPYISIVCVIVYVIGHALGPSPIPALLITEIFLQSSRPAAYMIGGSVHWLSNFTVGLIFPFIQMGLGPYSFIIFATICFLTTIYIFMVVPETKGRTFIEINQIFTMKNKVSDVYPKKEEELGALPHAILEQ
Protocol: EMT6 cells were grown to confluence in 12-well cell culture plates with media renewal every 2 days. One hour prior to the experiment, cell culture media was removed and the plates were washed twice with glucose-free Krebs–Ringer buffer solution. To each well, 1 mL of glucose-free Krebs–Ringer buffer solution was added and incubation at 37 °C was continued for 1 h under the glucose-free condition. After one hour, Krebs–Ringer buffer was removed.
After 60 min incubation time, radiotracer uptake was stopped with 1 mL of ice-cold PBS, and the cells were washed twice with PBS and lysed in 0.4 mL radioimmunoprecipitation assay buffer (RIPA buffer). Radioactivity in the cell lysates was then determined as counts per minute (CPM) using a WIZARD2 automatic γ-counter (Perkin Elmer, Waltham, MA, USA) and converted to the radioactivity dose SI unit Becquerel (Bq). Data was analyzed as percentage of maximum uptake of 6-[^18F]FDF. Graphs were constructed using GraphPad Prism 5.0 (GraphPad Software, San Diego, CA, USA) and half-maximum inhibition concentrations (IC50) were determined by graphical analysis of the concentration-inhibition curves.
To analyze the interaction of these novel C-3-modified 2,5-anhydro-D-mannitol analogs with GLUT5, in vitro experiments were carried out in GLUT5-expressing murine mammary carcinoma cancer cells (EMT6) to determine how the varied substitution patterns would impact GLUT5 binding. Furthermore, fructose derivative 6-FDF was used as the reference compound as it was analyzed for its uptake profile through GLUT5 in the past. […] Therefore, when designing novel specific inhibitors for the GLUT5 transporter, it would be reasonable to expect their GLUT5 transport also in a millimolar concentration range, especially when using a radiometric assay that was established with radiolabeled fructose derivative 6-[^18F]FDF in murine EMT6 breast cancer cells and with inhibition by D-fructose and reference compound 6-FDF as internal controls.

GLUT5 [2] = test system: GLUT5; set-up: method as in PMID 27074918; conditions: proteoliposome GLUT5 expression system; read-out: IC50 against D-[14C]fructose; cited from earlier work
GLUT5 [3] = test system: GLUT5; set-up: method as in PMID 27074918; conditions: MCF7 human breast cancer cells; read-out: IC50 against D-[14C]fructose; cited from earlier work
GLUT1 = test system: GLUT1; set-up: method as in PMID 18398011, PMID 9299540, PMID 15457374, doi:10.1002/bmb.2003.494031030227; conditions: cited from earlier work
GLUT5 [4] = conditions: read-out: Affinity (Km) of fructose transport through GLUT5; D-[14C]fructose; GLUT5 (human isoform)-expressing oocytes or brush-border membrane vesicles from rat and human intestine; cited from earlier work
[5] = Solubility in Krebs-Ringer buffer; type: physicochemical
GLUT2 = test system: GLUT2; set-up: method as in PMID 29142019; conditions: murine EMT6 cells; read-out: IC50 against uptake of [18F]FDG; cited from earlier work
GLUT5 [6] = biological target: T1, GLUT5; conditions: cited from earlier work
GLUT5 [7] = test system: GLUT5; set-up: method as in PMID 26306809; conditions: read-out: IC50 against D-[14C]fructose; cited from earlier work
GLUT5 [8] = conditions: human MCF7 breast cancer cells; cited from earlier work

IC50 (GLUT5 [1]): 1.71 ± 0.08 mM
Fold better inhibition of 6-[18F]FDF uptake relative to 6-FDF (GLUT5 [1]): ~ 10 fold
Structure (SMILES): O=C(N[C@H]1[C@H](O)[C@@H](CO)O[C@@H]1CO)c1cc2ccc(OCCF)cc2oc1=O [Compound 11, 3-deoxy-3-[N-(7-(2-fluoroethoxy)-2-oxo-2H-chromene-3-carboxamide)amino]-2,5-anhydro-D-mannitol]

IC50 (GLUT5 [1]): ~20 mM
Structure (SMILES): O=C(O)c1cc(NC(=S)N[C@H]2[C@H](O)[C@@H](CO)O[C@@H]2CO)ccc1-c1c2ccc(=O)cc-2oc2cc(O)ccc12 [Compound 8]

IC50 (GLUT5 [1]): ~6 mM
Structure (SMILES): O=S(=O)(N[C@H]1[C@H](O)[C@@H](CO)O[C@@H]1CO)c1ccc(F)cc1 [Compound 4, 3-deoxy-3-[N-(4-fluorobenzenesulfonamide)amino]-2,5-anhydro-D-mannitol]

Inhibition of 6-[18F]FDF uptake into EMT6 cells (in words) (GLUT5 [1]): no effect on 6-[^18F]FDF uptake
Structure (SMILES): OC[C@H]1O[C@H](CO)[C@@H](NC(=S)Nc2ccc(F)cc2)[C@@H]1O [Compound 7, 3-deoxy-3-[N-(1-(4-fluorophenyl)thiourea)amino]-2,5-anhydro-D-mannitol]

Fold better inhibition of 6-[18F]FDF uptake relative to 6-FDF (GLUT5 [1]): ~ 10 fold
Structure (SMILES): O=C(CO/N=C/c1ccc(F)cc1)N[C@H]1[C@H](O)[C@@H](CO)O[C@@H]1CO [Compound 10, 3-deoxy-3-[N-(2-(((4-fluorobenzylidene)amino)oxy)acetamide)amino]-2,5-anhydro-D-mannitol]

Structure (SMILES): CS(=O)(=O)c1ccc(Nc2ccc3c(c2)OCO3)c([N+](=O)[O-])c1 [MSNBA, N-(4-methanesulfonyl-2-nitrophenyl)-2H-1,3-benzodioxol-5-amine]
IC50 (GLUT5 [2]): 100 µM
IC50 (GLUT5 [3]): 5.8 mM

Structure (SMILES): OC[C@H]1OC(O)[C@H](O)[C@@H](O)[C@@H]1O (stereo partly shown) [glucose]
Affinity of glucose transport through GLUT1 (K4) (GLUT1): 1 to 2 mM

Structure (SMILES): O=C(CO)[C@@H](O)[C@H](O)[C@H](O)CO [Fructose, D-fructose]
Km (GLUT5 [4]): 11 to 15 mM
Solubility [5]: freely soluble
IC50 (GLUT2): 80 mM

IC50 (GLUT5 [1]): 2.29 ± 0.18 mM
Fold better inhibition of 6-[18F]FDF uptake relative to 6-FDF (GLUT5 [1]): fivefold stronger inhibitory effect
Structure (SMILES): CN(C)c1cccc2c(S(=O)(=O)N[C@H]3[C@H](O)[C@@H](CO)O[C@@H]3CO)cccc12 [Compound 6, 3-deoxy-3-[N-(5-(dimethylamino)naphthalene-1-sulfonamide)amino]-2,5-anhydro-D-mannitol]

IC50 (GLUT5 [1]): 17 ± 0.75 mM
Structure (SMILES): O=C(CO)[C@@H](O)[C@H](O)[C@H](O)CF [6-FDF, 6-deoxy-6-fluoro-D-fructose]
IC50 (GLUT5 [6]; murine EMT6 breast cancer cells, read-out: IC50 (half-maximum inhibition concentration) against 6-[18F]FDF uptake): 19 mM

Structure (SMILES): OC[C@H]1O[C@H](CF)[C@@H](O)[C@@H]1O [1-FDAM, 1-deoxy-1-fluoro-2,5-anhydro-mannitol]
IC50 (GLUT5 [6]; estimated earlier by the authors, read-out: IC50 against the uptake of the probe 6-[18F]FDF): ~20 mM

Structure (SMILES): C=C1C[C@@]23CC[C@H]4[C@@](C)(CCC[C@@]4(C)C(=O)O[C@@H]4O[C@H](CO)[C@@H](O)[C@H](O)[C@H]4O)[C@@H]2CC[C@]1(O[C@@H]1O[C@H](CO)[C@@H](O)[C@H](O)[C@H]1O)C3 [rubusoside]
IC50 (GLUT5 [7]): 10.3 mM

Structure (SMILES): O=[N+]([O-])c1ccc(NC[C@H]2O[C@H](CO)[C@@H](O)[C@@H]2O)c2nonc12 [NBDM, 1-[N-(7-nitrobenz-2-oxa-1,3-diazole-4-yl)amino]-2,5-anhydro-D-mannitol]
Ki (GLUT5 [8]): 2.3 to 2.7 mM
Transport efficiency through GLUT5 relative to D-fructose (GLUT5 [8]): transported twice as efficiently as D-fructose

Structure (SMILES): O=C(N[C@H]1[C@H](O)[C@@H](CO)O[C@@H]1CO)c1ccc(F)cc1 [Compound 9, 3-deoxy-3-[N-(4-fluorobenzamide)amino]-2,5-anhydro-D-mannitol]
Inhibition of 6-[18F]FDF uptake into EMT6 cells (in words) (GLUT5 [1]): no inhibitory activity in the selected concentration range

Structure (SMILES): O=S(=O)(N[C@H]1[C@H](O)[C@@H](CO)O[C@@H]1CO)c1ccc(F)cc1C(F)(F)F [Compound 5, 3-deoxy-3-[N-(4-fluoro-2-(trifluoromethyl)benzenesulfonamide)amino]-2,5-anhydro-D-mannitol]
Inhibition of 6-[18F]FDF uptake into EMT6 cells (in words) (GLUT5 [1]): failed to inhibit 6-[^18F] FDF uptake transport at all

Source: publication PMC9032776, “Towards Selective Binding to the GLUT5 Transporter: Synthesis, Molecular Dynamics and In Vitro Evaluation of Novel C-3-Modified 2,5-Anhydro-D-mannitol Analogs” (Pharmaceutics, 2022)
